{
  "source": "paper PMC10332459",
  "about": "“N-terminal lid swapping contributes to the substrate specificity and activity of thermophilic lipase TrLipE” (Frontiers in Microbiology, 2023)",
  "test_in_all_cases": "p-nitrophenol release at […] nm, non-linear fit",
  "type_in_all_cases": "biochemical, Thermomicrobium roseum",
  "key": {"TrL17": {"system": "T1, TrL17", "T1 construct": "gene EstN7; N-terminal lid Lys2-Glu45 of 7B4Q fused to TrLipE Val54-Ala323; His-tagged, E. coli BL21, 35-37 kDa", "conditions": "60 °C; Tris-HCl 50 mM pH 8.0; gum arabic and sodium deoxycholate emulsion; read-out: 4-Nitrophenyl benzoate"}, "TrL2": {"system": "T2, TrL2", "T2 construct": "gene EstE5; N-terminal lid Ala2-Asp42 of 3H18 fused to TrLipE Val54-Ala323; His-tagged, E. coli BL21, 35-37 kDa", "conditions": "60 °C; Tris-HCl 50 mM pH 8.0; gum arabic and sodium deoxycholate emulsion; read-out: 4-Nitrophenyl benzoate"}, "TrL18": {"system": "T3, TrL18", "T3 construct": "N-terminal lid Ala2-Glu45 of 7UAY fused to TrLipE Val54-Ala323; His-tagged, E. coli BL21, 35-37 kDa", "conditions": "60 °C; Tris-HCl 50 mM pH 8.0; gum arabic and sodium deoxycholate emulsion; read-out: 4-Nitrophenyl benzoate"}, "TrL3": {"system": "T4, TrL3", "T4 construct": "gene EstE7; N-terminal lid Asp13-Gly57 of 3K6K fused to TrLipE Val54-Ala323; His-tagged, E. coli BL21, 35-37 kDa", "conditions": "60 °C; Tris-HCl 50 mM pH 8.0; gum arabic and sodium deoxycholate emulsion; read-out: 4-Nitrophenyl benzoate"}, "TrL11": {"system": "T5, TrL11", "T5 construct": "gene E53; N-terminal lid Lys4-Gly69 of 5HC0 fused to TrLipE Val54-Ala323; His-tagged, E. coli BL21, 35-37 kDa", "conditions": "60 °C; Tris-HCl 50 mM pH 8.0; gum arabic and sodium deoxycholate emulsion; read-out: 4-Nitrophenyl palmitate"}, "TrL1": {"system": "T6, TrL1", "T6 construct": "gene EST2; N-terminal lid Leu3-Pro44 of 1EVQ fused to TrLipE Val54-Ala323; His-tagged, E. coli BL21, 35-37 kDa", "conditions": "60 °C; Tris-HCl 50 mM pH 8.0; gum arabic and sodium deoxycholate emulsion; read-out: 4-Nitrophenyl palmitate"}, "TrL4": {"system": "T7, TrL4", "T7 construct": "gene LipW; N-terminal lid Val2-Gly53 of 3QH4 fused to TrLipE Val54-Ala323; His-tagged, E. coli BL21, 35-37 kDa", "conditions": "60 °C; Tris-HCl 50 mM pH 8.0; gum arabic and sodium deoxycholate emulsion; read-out: 4-Nitrophenyl palmitate"}, "TrL12": {"system": "T8, TrL12", "T8 construct": "gene TmelEST2; N-terminal lid Gln34-Glu74 of 5MIF fused to TrLipE Val54-Ala323; His-tagged, E. coli BL21, 35-37 kDa", "conditions": "60 °C; Tris-HCl 50 mM pH 8.0; gum arabic and sodium deoxycholate emulsion; read-out: 4-Nitrophenyl palmitate"}, "TrL9": {"system": "T9, TrL9", "T9 construct": "gene Est8; N-terminal lid Ala2-Gly49 of 4YPV fused to TrLipE Val54-Ala323; His-tagged, E. coli BL21, 35-37 kDa", "conditions": "60 °C; Tris-HCl 50 mM pH 8.0; gum arabic and sodium deoxycholate emulsion; read-out: 4-Nitrophenyl palmitate"}, "TrL7": {"system": "T10, TrL7", "T10 construct": "gene SshEstI; N-terminal lid Pro2-Lys45 of 4P9N fused to TrLipE Val54-Ala323; His-tagged, E. coli BL21, 35-37 kDa", "conditions": "60 °C; Tris-HCl 50 mM pH 8.0; gum arabic and sodium deoxycholate emulsion; read-out: 4-Nitrophenyl laurate"}, "TrL5": {"system": "T11, TrL5", "T11 construct": "N-terminal lid Asn23-Pro66 of 4C89 fused to TrLipE Val54-Ala323; His-tagged, E. coli BL21, 35-37 kDa", "conditions": "60 °C; Tris-HCl 50 mM pH 8.0; gum arabic and sodium deoxycholate emulsion; read-out: 4-Nitrophenyl laurate"}, "TrL16": {"system": "T12, TrL16", "T12 construct": "gene PMGL3; N-terminal lid Asn2-Cys49 of 7B1X fused to TrLipE Val54-Ala323; His-tagged, E. coli BL21, 35-37 kDa", "conditions": "60 °C; Tris-HCl 50 mM pH 8.0; gum arabic and sodium deoxycholate emulsion; read-out: 4-Nitrophenyl decanoate"}, "TrL8": {"system": "T13, TrL8", "T13 construct": "gene ThaEst2349; N-terminal lid Pro2-Asp49 of 4V2I fused to TrLipE Val54-Ala323; His-tagged, E. coli BL21, 35-37 kDa", "conditions": "60 °C; Tris-HCl 50 mM pH 8.0; gum arabic and sodium deoxycholate emulsion; read-out: 4-Nitrophenyl decanoate"}},
  "data": [
    {"compound": "O=C(Oc1ccc([N+](=O)[O-])cc1)c1ccccc1", "note": "[4-Nitrophenyl benzoate]", "values": [
      {"measurement": "Km", "setting": "TrL17", "value": 60.2, "unit": "µM"},
      {"measurement": "Km", "setting": "TrL2", "value": 50, "unit": "µM"},
      {"measurement": "Km", "setting": "TrL18", "value": 44.9, "unit": "µM"},
      {"measurement": "Km", "setting": "TrL3", "value": 37, "unit": "µM"}
    ]},
    {"compound": "CCCCCCCCCCCCCCCC(=O)Oc1ccc([N+](=O)[O-])cc1", "note": "[4-Nitrophenyl palmitate]", "values": [
      {"measurement": "Km", "setting": "TrL11", "value": 77.4, "unit": "µM"},
      {"measurement": "Km", "setting": "TrL1", "value": 55.3, "unit": "µM"},
      {"measurement": "Km", "setting": "TrL4", "value": 7.46, "unit": "µM"},
      {"measurement": "Km", "setting": "TrL12", "value": 13.7, "unit": "µM"},
      {"measurement": "Km", "setting": "TrL9", "value": 23.2, "unit": "µM"}
    ]},
    {"compound": "CCCCCCCCCCCC(=O)Oc1ccc([N+](=O)[O-])cc1", "note": "[4-Nitrophenyl laurate]", "values": [
      {"measurement": "Km", "setting": "TrL7", "value": 12.8, "unit": "µM"},
      {"measurement": "Km", "setting": "TrL5", "value": 21.1, "unit": "µM"}
    ]},
    {"compound": "CCCCCCCCCC(=O)Oc1ccc([N+](=O)[O-])cc1", "note": "[4-Nitrophenyl decanoate]", "values": [
      {"measurement": "Km", "setting": "TrL16", "value": 44.7, "unit": "µM"},
      {"measurement": "Km", "setting": "TrL8", "value": 21.8, "unit": "µM"}
    ]}
  ]
}
